How the values were obtained:
Format in all cases: biochemical
Btk = Btk (Homo sapiens, UniProt Q06187); assay: Btk kinase activity, TR-FRET assay; conditions: read-out: Btk (IC50)
How it was run: (§1)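 Enzyme (Btk 0.5 nM; Lck 6 nM) reacted 1 h with inhibitor, ATP at Km and biotin-peptide substrate in pH 7.4 buffer, 10% DMSO. Phosphopeptide detected by Eu-p-Tyr100 antibody plus streptavidin-APC (665/615 nm). IC50 calculated from fitted Ki(app) via ATP/Km correction plus half total enzyme.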

Lck = Lck (Homo sapiens, UniProt P06239); assay: Lck kinase activity, TR-FRET assay; conditions: read-out: LCK (IC50)
How it was run: as §1

JAK3 = molecular target: T1, JAK3 (Homo sapiens, UniProt P52333); assay: Inhibition of a panel of kinases, in vitro HotSpot kinase assay: JAK3
T1 sequence (P52333 1-1124): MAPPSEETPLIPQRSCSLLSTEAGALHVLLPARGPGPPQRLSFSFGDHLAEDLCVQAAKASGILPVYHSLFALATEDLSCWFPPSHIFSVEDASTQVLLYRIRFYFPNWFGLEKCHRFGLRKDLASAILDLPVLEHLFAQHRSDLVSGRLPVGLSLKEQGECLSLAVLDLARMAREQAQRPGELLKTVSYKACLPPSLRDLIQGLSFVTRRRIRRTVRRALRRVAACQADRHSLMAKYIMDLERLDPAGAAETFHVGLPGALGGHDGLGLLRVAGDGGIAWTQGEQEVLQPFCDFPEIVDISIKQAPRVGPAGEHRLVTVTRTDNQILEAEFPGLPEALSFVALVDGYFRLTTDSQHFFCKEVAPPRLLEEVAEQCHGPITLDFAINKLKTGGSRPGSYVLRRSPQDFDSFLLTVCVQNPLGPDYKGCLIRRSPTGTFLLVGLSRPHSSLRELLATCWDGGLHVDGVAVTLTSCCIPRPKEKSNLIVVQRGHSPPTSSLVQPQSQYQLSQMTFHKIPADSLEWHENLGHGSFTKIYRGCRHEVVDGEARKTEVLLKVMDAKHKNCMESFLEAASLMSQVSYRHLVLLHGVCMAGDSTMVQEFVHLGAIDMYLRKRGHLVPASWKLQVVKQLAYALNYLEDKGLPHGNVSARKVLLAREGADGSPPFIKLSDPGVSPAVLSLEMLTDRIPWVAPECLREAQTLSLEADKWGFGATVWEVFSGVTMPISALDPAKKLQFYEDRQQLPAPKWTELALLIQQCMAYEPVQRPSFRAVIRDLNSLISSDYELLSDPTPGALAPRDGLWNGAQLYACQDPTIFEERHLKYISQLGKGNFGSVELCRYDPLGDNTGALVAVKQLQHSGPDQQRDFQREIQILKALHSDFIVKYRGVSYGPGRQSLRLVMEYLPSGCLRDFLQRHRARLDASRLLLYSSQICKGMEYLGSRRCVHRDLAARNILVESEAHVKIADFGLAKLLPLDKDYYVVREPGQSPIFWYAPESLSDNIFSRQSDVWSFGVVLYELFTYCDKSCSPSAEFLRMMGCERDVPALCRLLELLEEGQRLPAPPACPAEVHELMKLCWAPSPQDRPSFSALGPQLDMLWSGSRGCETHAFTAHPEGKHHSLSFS
Method: (§2) The degree of inhibition of a panel of kinases is determined using the in vitro HotSpot kinase assay (purified enzymes, ^33P-ATP, an appropriate substrate and 1 uM ATP).

EGFR = EGFR (Homo sapiens, UniProt P00533); assay: Inhibition of a panel of kinases, in vitro HotSpot kinase assay: EGFR
Method: as §2

Chain of EGFR (P00533 25-1210): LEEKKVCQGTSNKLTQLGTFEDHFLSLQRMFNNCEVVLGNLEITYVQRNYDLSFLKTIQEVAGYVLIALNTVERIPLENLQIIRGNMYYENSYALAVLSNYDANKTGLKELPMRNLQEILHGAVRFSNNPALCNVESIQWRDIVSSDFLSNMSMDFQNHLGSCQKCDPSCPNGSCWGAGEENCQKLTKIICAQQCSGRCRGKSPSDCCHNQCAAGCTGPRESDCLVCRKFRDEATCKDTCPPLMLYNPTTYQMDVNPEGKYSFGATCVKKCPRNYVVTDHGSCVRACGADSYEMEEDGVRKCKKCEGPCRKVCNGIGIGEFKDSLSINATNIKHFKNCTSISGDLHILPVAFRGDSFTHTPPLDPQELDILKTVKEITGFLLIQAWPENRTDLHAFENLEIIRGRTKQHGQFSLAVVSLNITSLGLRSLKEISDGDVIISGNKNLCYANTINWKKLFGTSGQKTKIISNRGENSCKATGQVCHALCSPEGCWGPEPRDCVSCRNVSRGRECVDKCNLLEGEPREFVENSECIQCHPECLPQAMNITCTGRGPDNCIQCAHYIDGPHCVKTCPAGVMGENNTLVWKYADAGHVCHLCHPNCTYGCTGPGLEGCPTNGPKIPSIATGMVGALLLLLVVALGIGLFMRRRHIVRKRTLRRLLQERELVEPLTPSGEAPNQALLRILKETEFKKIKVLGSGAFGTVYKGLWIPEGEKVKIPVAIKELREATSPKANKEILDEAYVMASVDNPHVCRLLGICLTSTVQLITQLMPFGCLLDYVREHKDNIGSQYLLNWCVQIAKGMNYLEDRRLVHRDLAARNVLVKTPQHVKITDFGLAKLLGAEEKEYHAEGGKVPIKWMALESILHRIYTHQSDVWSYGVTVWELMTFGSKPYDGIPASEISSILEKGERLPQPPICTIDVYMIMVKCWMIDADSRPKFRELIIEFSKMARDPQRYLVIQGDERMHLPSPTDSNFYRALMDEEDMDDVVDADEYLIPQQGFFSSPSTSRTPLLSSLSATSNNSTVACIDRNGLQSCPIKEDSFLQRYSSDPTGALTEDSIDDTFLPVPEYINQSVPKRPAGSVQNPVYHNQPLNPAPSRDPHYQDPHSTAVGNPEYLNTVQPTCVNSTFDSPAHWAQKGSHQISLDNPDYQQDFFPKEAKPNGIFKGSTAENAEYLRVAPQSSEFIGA
Chain of Lck (P06239 whole entry, species assumed): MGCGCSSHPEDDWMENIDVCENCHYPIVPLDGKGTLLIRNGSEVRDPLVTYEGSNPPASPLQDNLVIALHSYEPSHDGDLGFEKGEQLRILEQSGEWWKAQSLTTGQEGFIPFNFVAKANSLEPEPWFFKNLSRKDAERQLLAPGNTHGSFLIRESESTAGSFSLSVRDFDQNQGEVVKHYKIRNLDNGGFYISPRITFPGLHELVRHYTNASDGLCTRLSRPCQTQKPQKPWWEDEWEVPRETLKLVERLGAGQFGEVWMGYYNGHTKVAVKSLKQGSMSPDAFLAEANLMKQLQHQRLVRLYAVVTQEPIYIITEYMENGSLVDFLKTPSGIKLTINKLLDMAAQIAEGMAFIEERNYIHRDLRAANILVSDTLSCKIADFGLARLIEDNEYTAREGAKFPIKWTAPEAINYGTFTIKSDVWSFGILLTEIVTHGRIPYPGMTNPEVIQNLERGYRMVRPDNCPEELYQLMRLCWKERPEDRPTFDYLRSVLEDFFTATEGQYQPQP
Chain of Btk (Q06187 whole entry): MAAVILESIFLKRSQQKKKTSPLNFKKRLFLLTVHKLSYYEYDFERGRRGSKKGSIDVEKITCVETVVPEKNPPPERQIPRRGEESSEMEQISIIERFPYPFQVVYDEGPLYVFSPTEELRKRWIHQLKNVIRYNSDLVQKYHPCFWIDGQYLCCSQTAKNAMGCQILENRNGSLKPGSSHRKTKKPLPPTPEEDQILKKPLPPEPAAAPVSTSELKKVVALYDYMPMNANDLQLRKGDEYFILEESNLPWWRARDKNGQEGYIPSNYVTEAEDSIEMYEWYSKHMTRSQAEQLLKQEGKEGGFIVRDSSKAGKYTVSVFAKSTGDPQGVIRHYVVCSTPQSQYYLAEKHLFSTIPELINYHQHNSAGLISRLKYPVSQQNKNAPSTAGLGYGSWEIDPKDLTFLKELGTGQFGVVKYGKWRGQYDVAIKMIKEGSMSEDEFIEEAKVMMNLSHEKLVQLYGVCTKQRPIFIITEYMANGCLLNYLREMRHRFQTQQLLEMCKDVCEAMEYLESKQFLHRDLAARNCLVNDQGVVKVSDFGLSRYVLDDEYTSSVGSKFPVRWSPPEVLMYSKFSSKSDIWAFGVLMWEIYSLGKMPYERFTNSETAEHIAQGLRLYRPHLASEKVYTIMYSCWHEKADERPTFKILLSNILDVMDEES

Row | Structure (SMILES) | IC50 (Btk) [nM] | IC50 (Lck) [nM] | IC50 (JAK3) [nM] | IC50 (EGFR) [nM]
1 | Cc1cc(NC(=O)c2cccc(Nc3ccnc4[nH]nc(N[C@@H]5CCCN(C(=O)C6CC6)C5)c34)c2)ccc1C(C)C [compound 127, 3-[(3-{[(3R)-1-cyclopropanecarbonylpiperidin-3-yl]amino}-1H-pyrazolo[3,4-b]pyridin-4-yl)amino]-N-[3-methyl-4-(propan-2-yl)phenyl]benzamide] | 100 to 1000 | 1000 to 10000 | > 10000 | –
2 | Cc1ccnc(NC(=O)c2ccc(Oc3ccnc4[nH]nc(N[C@@H]5CCCN(C(=O)C6(C)COC6)C5)c34)cc2)c1 [compound 86, 4-[(3-{[(3R)-1-(3-methyloxetane-3-carbonyl)piperidin-3-yl]amino}-1H-pyrazolo[3,4-b]pyridin-4-yl)oxy]-N-(4-methylpyridin-2-yl)benzamide] | < 100 | – | > 10000 | –
3 | Cc1ccnc(NC(=O)c2ccc(Oc3ccnc4[nH]nc(N[C@@H]5CCCN(C(=O)c6ccccc6F)C5)c34)cc2)c1 [compound 248, (R)-4-(3-(1-(2-fluorobenzoyl)piperidin-3-ylamino)-1H-pyrazolo[3,4-b]pyridin-4-yloxy)-N-(4-methylpyridin-2-yl)benzamide] | < 100 | 1000 to 10000 | > 10000 | –
4 | Cc1ccnc(NC(=O)c2ccc(Oc3ccnc4[nH]nc(N[C@@H]5CCCN(C(=O)c6ncc[nH]6)C5)c34)cc2)c1 [compound 242, (R)-4-(3-(1-(1H-imidazole-2-carbonyl)piperidin-3-ylamino)-1H-pyrazolo[3,4-b]pyridin-4-yloxy)-N-(4-methylpyridin-2-yl)benzamide] | < 100 | 100 to 1000 | > 10000 | –
5 | C=CC(=O)N1CCC[C@@H](Nc2n[nH]c3nccc(Nc4cccc(C(=O)Nc5ccc(C(C)C)c(C)c5)c4)c23)C1 [compound 129, N-[3-methyl-4-(propan-2-yl)phenyl]-3-[(3-{[(3R)-1-(prop-2-enoyl)piperidin-3-yl]amino}-1H-pyrazolo[3,4-b]pyridin-4-yl)amino]benzamide] | < 100 | 1000 to 10000 | < 100 | –
6 | Cc1ccnc(NC(=O)c2ccc(Oc3ccnc4[nH]nc(N[C@@H]5CCCN(C(=O)c6cccc(F)c6)C5)c34)cc2)c1 [compound 247, (R)-4-(3-(1-(3-fluorobenzoyl)piperidin-3-ylamino)-1H-pyrazolo[3,4-b]pyridin-4-yloxy)-N-(4-methylpyridin-2-yl)benzamide] | < 100 | 1000 to 10000 | > 10000 | –
7 | CC(=O)N1CCC[C@@H](Nc2n[nH]c3nccc(Nc4cccc(C(=O)Nc5ccc(C(C)C)c(C)c5)c4)c23)C1 [compound 131, 3-[(3-{[(3R)-1-acetylpiperidin-3-yl]amino}-1H-pyrazolo[3,4-b]pyridin-4-yl)amino]-N-[3-methyl-4-(propan-2-yl)phenyl]benzamide] | 100 to 1000 | 1000 to 10000 | > 10000 | –
8 | CCC(=O)N1CC[C@@H](Nc2n[nH]c3nccc(Oc4ccc(C(=O)Nc5ncc(C)s5)cc4)c23)C1 [compound 72, N-(5-methyl-1,3-thiazol-2-yl)-4-[(3-{[(3R)-1-propanoylpyrrolidin-3-yl]amino}-1H-pyrazolo[3,4-b]pyridin-4-yl)oxy]benzamide] | – | – | 1000 to 10000 | –
9 | CN(C/C=C/C(=O)N1CC[C@@H](Nc2n[nH]c3nccc(Oc4ccc(C(=O)Nc5cc(OC6CC6)ccn5)cc4)c23)C1)C1CC1 [compound 76, (R,E)-N-(4-cyclopropoxypyridin-2-yl)-4-(3-(1-(4-(cyclopropyl(methyl)amino)but-2-enoyl)pyrrolidin-3-ylamino)-1H-pyrazolo[3,4-b]pyridin-4-yloxy)benzamide] | < 100 | 100 to 1000 | – | 100 to 1000
10 | COc1ccnc(NC(=O)c2ccc(Oc3ccnc4[nH]nc(N[C@@H]5CCN(C(=O)/C=C/CN(C)C6CC6)C5)c34)cc2)c1 [compound 58] | < 100 | 1000 to 10000 | – | > 10000
11 | Cc1ccnc(NC(=O)c2ccc(Oc3ccnc4[nH]nc(N[C@@H]5CCCN(C(=O)C6COC6)C5)c34)cc2)c1 [compound 90, N-(4-methylpyridin-2-yl)-4-[(3-{[(3R)-1-(oxetan-3-carbonyl)piperidin-3-yl]amino}-1H-pyrazolo[3,4-b]pyridin-4-yl)oxy]benzamide] | < 100 | 100 to 1000 | – | 1000 to 10000
12 | CN(C/C=C/C(=O)N1CC[C@@H](Nc2n[nH]c3nccc(Oc4ccc(OCc5cnn[nH]5)cc4)c23)C1)C1CC1 [compound 40] | < 100 | 100 to 1000 | – | < 100
13 | CN(C/C=C/C(=O)Nc1ccccc1Nc1n[nH]c2nccc(Oc3ccc(Oc4ccccc4)cc3)c12)C1CC1 [compound 57] | > 10000 | > 10000 | – | > 10000
14 | Cc1ccnc(NC(=O)c2ccc(Oc3ccnc4[nH]nc(N[C@@H]5CCCN(C(=O)C6CCN(C)CC6)C5)c34)cc2)c1 [compound 92, 4-[(3-{[(3R)-1-(1-methylpiperidine-4-carbonyl)piperidin-3-yl]amino}-1H-pyrazolo[3,4-b]pyridin-4-yl)oxy]-N-(4-methylpyridin-2-yl)benzamide] | < 100 | 100 to 1000 | – | 1000 to 10000
15 | CN(C/C=C/C(=O)N1CC[C@@H](Oc2n[nH]c3nccc(Oc4ccc(Oc5ccccc5)cc4)c23)C1)C1CC1 [compound 22, (2E)-4-[cyclopropyl(methyl)amino]-1-[(3R)-3-{[4-(4-phenoxyphenoxy)-1H-pyrazolo[3,4-b]pyridin-3-yl]oxy}pyrrolidin-1-yl]but-2-en-1-one] | < 100 | < 100 | – | < 100
16 | CCC(=O)N1CC[C@@H](Oc2n[nH]c3nccc(Nc4ccc(C(=O)Nc5cc(C(F)(F)F)ccn5)cc4)c23)C1 [compound 71] | < 100 | 100 to 1000 | – | 1000 to 10000
17 | N#CCC(=O)N1CC[C@@H](Nc2n[nH]c3nccc(Oc4ccc(Oc5ccccc5)cc4)c23)C1 [compound 44] | < 100 | < 100 | – | 100 to 1000
18 | CN1CC[C@@H](Nc2n[nH]c3nccc(Oc4ccc(Oc5ccccc5)cc4)c23)C1 [compound 45] | < 100 | < 100 | – | 100 to 1000
19 | CCC(=O)N1CC[C@@H](Nc2n[nH]c3nccc(Nc4ccc(C(=O)Nc5cc(C(F)(F)F)ccn5)cc4)c23)C1 [compound 70] | < 100 | 100 to 1000 | – | 1000 to 10000
20 | N#Cc1cc(Nc2n[nH]c3nccc(Oc4ccc(Oc5ccccc5)cc4)c23)ccn1 [compound 30, 4-{[4-(4-phenoxyphenoxy)-1H-pyrazolo[3,4-b]pyridin-3-yl]amino}pyridine-2-carbonitrile] | 1000 to 10000 | 100 to 1000 | – | 100 to 1000
21 | CO[C@H]1CC[C@@H](Nc2n[nH]c3nccc(Oc4ccc(C(=O)Nc5cc(C#N)ccn5)cc4)c23)CC1 [compound 85, N-(4-cyanopyridin-2-yl)-4-[(3-{[(1S,4S)-4-methoxycyclohexyl]amino}-1H-pyrazolo[3,4-b]pyridin-4-yl)oxy]benzamide] | < 100 | 100 to 1000 | – | 100 to 1000
22 | CC(C)c1ccnc(NC(=O)c2ccc(Oc3ccnc4[nH]nc(N[C@@H]5CCN(C(=O)/C=C/CN(C)C6CC6)C5)c34)cc2)c1 [compound 61] | < 100 | 100 to 1000 | – | 1000 to 10000
23 | CCNC(=O)N1CCCC(c2n[nH]c3nccc(Oc4ccc(C(=O)Nc5ncc(C)s5)cc4)c23)C1 (stereo not drawn) [compound 195, N-ethyl-3-(4-{4-[(5-methyl-1,3-thiazol-2-yl)carbamoyl]phenoxy}-1H-pyrazolo[3,4-b]pyridin-3-yl)piperidine-1-carboxamide] | 100 to 1000 | 1000 to 10000 | – | 1000 to 10000
24 | CN(C)C/C=C/C(=O)N1CC[C@@H](Nc2n[nH]c3ncnc(Oc4ccc(Oc5ccccc5)cc4)c23)C1 [compound 39] | < 100 | 100 to 1000 | – | < 100

Reference: US9580416B2, “Inhibitors of Bruton's tyrosine kinase” (PHARMACYCLICS LLC, priority 2014, dated 2017)
